Assay results from ChEMBL document CHEMBL5038679, “Fluoroalkylation of Dextromethorphan Improves CNS Exposure and Metabolic Stability” (ACS Med Chem Lett, 2022).
In brackets after ≈: the same amount, converted by molar mass.

Columns and labels:
[1] = target: Glutamate [NMDA] receptor; experiment: Displacement of […] from NMDA receptor (unknown origin) expressed in HEK cell membrane incubated for 2 hrs by liquid scintillation counter analysis
[2] = target: Sigma intracellular receptor 2 (Homo sapiens, UniProt Q5BJF2); experiment: Displacement of […] from sigma-2 receptor (unknown origin) expressed in HEK cell membrane incubated for 2 hrs by liquid scintillation counter analysis
Sequence of Sigma intracellular receptor 2 (Q5BJF2 whole entry): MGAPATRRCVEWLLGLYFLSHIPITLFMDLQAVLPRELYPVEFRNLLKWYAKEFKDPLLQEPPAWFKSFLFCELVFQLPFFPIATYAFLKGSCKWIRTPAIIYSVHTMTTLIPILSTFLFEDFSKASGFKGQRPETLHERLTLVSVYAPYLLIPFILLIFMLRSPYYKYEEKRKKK

[3] = Unbound brain-to-plasma concentration ratio in Sprague-Dawley rat; type: ADME, cell-free; conditions: read-out: K(p,uu,brain)
[4] = in vitro; conditions: human, liver microsomes
[5] = Protein binding in Sprague-Dawley rat plasma assessed as unbound fraction at 20 uM by NMR analysis; type: ADME, cell-free
[6] = target: hERG (KCNH2) (Homo sapiens, UniProt Q12809); experiment: Inhibition of human ERG at 10 uM measured after 15 mins by plate reader method relative to control; type: toxicity
Sequence of hERG (KCNH2) (Q12809 whole entry): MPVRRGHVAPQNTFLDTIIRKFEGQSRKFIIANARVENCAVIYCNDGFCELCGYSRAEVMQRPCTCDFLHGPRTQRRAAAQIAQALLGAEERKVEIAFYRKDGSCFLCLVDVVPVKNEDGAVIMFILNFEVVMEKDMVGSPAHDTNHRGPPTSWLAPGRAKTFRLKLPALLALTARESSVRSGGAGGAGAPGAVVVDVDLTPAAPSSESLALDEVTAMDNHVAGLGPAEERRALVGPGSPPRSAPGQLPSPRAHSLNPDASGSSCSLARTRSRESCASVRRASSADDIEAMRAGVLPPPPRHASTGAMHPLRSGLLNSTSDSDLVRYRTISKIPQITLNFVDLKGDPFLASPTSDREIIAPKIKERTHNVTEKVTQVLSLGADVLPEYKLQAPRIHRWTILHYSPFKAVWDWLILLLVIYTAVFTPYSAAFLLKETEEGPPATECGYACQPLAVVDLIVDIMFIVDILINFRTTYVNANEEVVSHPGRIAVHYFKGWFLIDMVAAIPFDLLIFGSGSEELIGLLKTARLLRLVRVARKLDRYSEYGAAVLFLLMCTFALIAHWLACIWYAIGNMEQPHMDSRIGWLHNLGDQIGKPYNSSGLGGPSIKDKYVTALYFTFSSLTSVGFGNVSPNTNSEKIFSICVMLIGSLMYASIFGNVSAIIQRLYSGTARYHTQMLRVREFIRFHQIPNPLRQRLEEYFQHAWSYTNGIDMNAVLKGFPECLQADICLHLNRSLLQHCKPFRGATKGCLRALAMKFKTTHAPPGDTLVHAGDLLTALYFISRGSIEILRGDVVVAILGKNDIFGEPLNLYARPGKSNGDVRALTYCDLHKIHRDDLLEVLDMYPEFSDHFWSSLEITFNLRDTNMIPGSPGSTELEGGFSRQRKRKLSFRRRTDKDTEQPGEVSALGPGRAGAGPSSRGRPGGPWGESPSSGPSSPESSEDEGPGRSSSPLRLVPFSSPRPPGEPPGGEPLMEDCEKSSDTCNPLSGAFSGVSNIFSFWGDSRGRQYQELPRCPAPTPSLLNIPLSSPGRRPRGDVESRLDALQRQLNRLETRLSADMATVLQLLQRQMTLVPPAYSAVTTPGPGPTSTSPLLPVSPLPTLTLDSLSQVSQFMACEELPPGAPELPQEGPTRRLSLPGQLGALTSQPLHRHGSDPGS

[7] = AUC in Sprague-Dawley rat brain at 2.5 mg/kg, po measured after 24 hrs by LC-MS/MS analysis; type: ADME, organism-based; parameters: route oral, time 24 hrs, dose 2.5 mg/kg
[8] = Cmax in Sprague-Dawley rat brain at 2.5 mg/kg, po measured after 24 hrs by LC-MS/MS analysis; type: ADME, organism-based; parameters: route oral, time 24 hrs, dose 2.5 mg/kg
[9] = Aqueous solubility of compound in universal buffer at pH 7.4 at 100 uM incubated for 1.5 hrs under shaking condition by LC-MS/MS analysis; type: physicochemical
[10] = Aqueous solubility of compound in universal buffer at pH 3 at 100 uM incubated for 1.5 hrs under shaking condition by LC-MS/MS analysis; type: physicochemical
[11] = Cmax in Sprague-Dawley rat plasma at 2.5 mg/kg, po measured after 24 hrs by LC-MS/MS analysis; type: ADME, organism-based; parameters: route oral, dose 2.5 mg/kg, time 24 hrs
[12] = target: T1, Sodium-dependent noradrenaline transporter (Homo sapiens, UniProt P23975); experiment: Inhibition of human NET expressed in human HEK293 cells assessed as inhibition of substrate transport measured after 1 hr by flourescence based plate reader assay; type: cell-based
T1 sequence (P23975 whole entry): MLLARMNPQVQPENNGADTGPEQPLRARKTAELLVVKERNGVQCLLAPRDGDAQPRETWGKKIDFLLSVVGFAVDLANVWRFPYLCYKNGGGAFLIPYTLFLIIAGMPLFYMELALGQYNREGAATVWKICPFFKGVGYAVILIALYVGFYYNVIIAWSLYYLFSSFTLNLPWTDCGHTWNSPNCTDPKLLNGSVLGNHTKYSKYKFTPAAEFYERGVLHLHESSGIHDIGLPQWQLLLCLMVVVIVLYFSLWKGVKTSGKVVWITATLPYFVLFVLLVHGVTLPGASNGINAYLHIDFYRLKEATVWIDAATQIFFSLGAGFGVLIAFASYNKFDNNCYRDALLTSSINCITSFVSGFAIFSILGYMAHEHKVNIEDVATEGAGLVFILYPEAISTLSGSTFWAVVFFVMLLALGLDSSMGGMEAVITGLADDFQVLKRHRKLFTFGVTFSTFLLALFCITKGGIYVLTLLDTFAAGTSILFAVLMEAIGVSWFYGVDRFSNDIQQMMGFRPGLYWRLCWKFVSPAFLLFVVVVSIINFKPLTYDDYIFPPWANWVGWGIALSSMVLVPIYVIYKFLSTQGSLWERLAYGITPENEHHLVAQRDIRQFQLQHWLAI

[13] = target: Sigma non-opioid intracellular receptor 1 (Homo sapiens, UniProt Q99720); experiment: Displacement of […] from sigma-1 receptor (unknown origin) expressed in HEK cell membrane incubated for 2 hrs by liquid scintillation counter analysis
Sequence of Sigma non-opioid intracellular receptor 1 (Q99720 whole entry): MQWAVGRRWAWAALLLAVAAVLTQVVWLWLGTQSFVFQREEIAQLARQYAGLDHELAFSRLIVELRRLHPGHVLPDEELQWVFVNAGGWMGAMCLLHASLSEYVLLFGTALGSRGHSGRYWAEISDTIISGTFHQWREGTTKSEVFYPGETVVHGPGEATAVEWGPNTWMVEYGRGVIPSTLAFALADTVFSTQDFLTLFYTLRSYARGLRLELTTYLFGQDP

[14] = AUC in Sprague-Dawley rat plasma at 2.5 mg/kg, po measured after 24 hrs by LC-MS/MS analysis; type: ADME, organism-based; parameters: route oral, time 24 hrs, dose 2.5 mg/kg
[15] = Protein binding in Sprague-Dawley rat brain plasma assessed as unbound fraction at 5 uM measured after 4 hrs by LC-MS analysis; type: ADME, tissue-based
[16] = Half life in Sprague-Dawley rat plasma at 2.5 mg/kg, po measured after 24 hrs by LC-MS/MS analysis; type: ADME, organism-based
[17] = Volume of distribution in Sprague-Dawley rat at 2.5 mg/kg, po measured after 24 hrs by LC-MS/MS analysis; type: ADME, organism-based; conditions: in vivo
[18] = Clearance in Sprague-Dawley rat plasma at 2.5 mg/kg, po measured after 24 hrs by LC-MS/MS analysis; type: ADME, organism-based
[19] = Stability in human liver microsomes assessed as half life at 10 uM measured upto 120 mins by LC-MS/MS analysis; type: ADME, Microsome
[20] = Half life in Sprague-Dawley rat brain at 2.5 mg/kg, po measured after 24 hrs by LC-MS/MS analysis; type: ADME, organism-based
[21] = in vitro; conditions: dog, MDCK-MDR1
Description: Apparent permeability in dog MDCK-MDR1 cells from basal to apical side measured after 30 to 120 mins by LC-MS analysis

[22] = target: T1, Sodium-dependent noradrenaline transporter; experiment: Displacement of […] from NET (unknown origin) expressed in HEK cell membrane incubated for 2 hrs by liquid scintillation counter analysis
[23] = in vitro; conditions: dog, MDCK-MDR1; remark: listed apart in the source
Description: Apparent permeability in dog MDCK-MDR1 cells from apical to basal side measured after 30 to 120 mins by LC-MS analysis

[24] = target: T2, Sodium-dependent serotonin transporter (Homo sapiens, UniProt P31645); experiment: biochemical; type: cell-based, HEK
T2 sequence (P31645 whole entry): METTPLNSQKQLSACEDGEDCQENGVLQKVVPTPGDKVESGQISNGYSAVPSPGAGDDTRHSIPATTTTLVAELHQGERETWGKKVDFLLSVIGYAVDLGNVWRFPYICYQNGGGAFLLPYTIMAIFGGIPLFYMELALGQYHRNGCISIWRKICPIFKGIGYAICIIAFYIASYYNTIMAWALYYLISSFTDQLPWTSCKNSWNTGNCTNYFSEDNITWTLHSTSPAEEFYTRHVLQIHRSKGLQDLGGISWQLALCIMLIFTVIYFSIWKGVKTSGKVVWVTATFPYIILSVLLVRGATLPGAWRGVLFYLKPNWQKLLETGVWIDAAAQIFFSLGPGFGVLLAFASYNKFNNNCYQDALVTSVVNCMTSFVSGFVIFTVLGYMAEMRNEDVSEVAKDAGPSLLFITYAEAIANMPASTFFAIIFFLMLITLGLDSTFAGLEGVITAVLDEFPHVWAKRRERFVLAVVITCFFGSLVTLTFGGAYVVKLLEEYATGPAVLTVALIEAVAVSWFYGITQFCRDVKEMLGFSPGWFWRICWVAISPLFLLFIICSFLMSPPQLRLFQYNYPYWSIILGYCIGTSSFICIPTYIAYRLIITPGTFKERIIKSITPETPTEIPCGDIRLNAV
Description: Displacement of [3H]-Citalopram from SERT receptor (unknown origin) expressed in HEK cell membrane incubated for 2 hrs by liquid scintillation counter analysis

[25] = Efflux ratio of apparent permeability across basolateral to apical side over apical to basolateral side in dog MDCK-MDR1 cells measured after 30 to 120 mins by LC-MS analysis; type: ADME, cell-based, Canis lupus familiaris; conditions: time 30-120 min
[26] = target: T2, Sodium-dependent serotonin transporter; type: cell-based, HEK293

Structure (SMILES)	Ki [1] [nM]	Ki [2] [nM]	Kp uu at 20 µM [3]	CLint scaled at 2 h, 10 µM [4] [mL/min/kg]	AUC at 24 h [7] [ng·h/mL]	Cmax [8] [ng/mL]	solubility at 1.5 h, 100 µM [9] [µM]	solubility at 1.5 h, 100 µM [10] [µM]	Cmax [11] [ng/mL]	Ki [13] [nM]	AUC at 24 h [14] [ng·h/mL]	half-life [16] [h]	CL/F [18] [mL/min/kg]	half-life at 10 µM [19] [h]	half-life [20] [h]	Papp B→A [21] [×10⁻⁶ cm/s]	Ki [22] [nM]	Papp A→B [23] [×10⁻⁶ cm/s]	Ki [24] [nM]	efflux ratio [25]	further results
COc1ccc2c(c1)[C@@]13CCCC[C@@H]1[C@@H](C2)N(C)CC3	624	862	27.9	6.09	389	214	94 (≈ 25.5 µg/mL)	88 (≈ 23.9 µg/mL)	9.7	73	21.3	2	2990	3.42	2.07	1.21	> 10000	1.48	–	–	Cp(f) [5]: 19.3%; inhibition at 0.25 h, 10 µM [6]: 0.1%; IC50 [12]: > 10000 nM; Cp(f) [15]: 21.6%; Vd [17]: 589 L/kg
CN1CC[C@]23CCCC[C@@H]2[C@H]1Cc1ccc(O)cc13	486	> 10000	–	–	–	–	–	–	–	118	–	–	–	–	–	–	> 340	–	401	–	–
[2H]C([2H])([2H])N1CC[C@@]23CCCC[C@@H]2[C@@H]1Cc1ccc(OC(F)(F)F)cc13	–	–	1.2	7.81	5810	725	100 (≈ 32.8 µg/mL)	86 (≈ 28.2 µg/mL)	32	–	205	2.45	202	2.67	3.03	–	–	–	–	–	Cp(f) [5]: 40.2%; Cp(f) [15]: 2.1%; Vd [17]: 43 L/kg
[2H]C([2H])([2H])N1CC[C@@]23CCCC[C@@H]2[C@@H]1Cc1ccc(OC(F)F)cc13	–	–	–	13.2	–	–	101 (≈ 31.4 µg/mL)	83 (≈ 25.8 µg/mL)	–	–	–	–	–	1.58	–	–	–	–	–	–	–
[2H]C([2H])([2H])N1CC[C@@]23CCCC[C@@H]2[C@@H]1Cc1ccc(C(F)(F)C(F)(F)F)cc13	–	–	–	10	–	–	82 (≈ 29.7 µg/mL)	70 (≈ 25.4 µg/mL)	–	–	–	–	–	2.07	–	–	–	–	–	–	–
CN1CC[C@@]23CCCC[C@@H]2[C@@H]1Cc1ccc(OC(F)(F)F)cc13	> 10000	833	3.3	5.66	9460	756	> 100	60 (≈ 19.5 µg/mL)	12	757	131	2.8	318	3.67	3.18	1.12	> 10000	0.989	48	1.13	inhibition at 0.25 h, 10 µM [6]: 6.1%; IC50 [26]: 31 nM; IC50 [12]: > 10000 nM; Vd [17]: 77 L/kg
[2H]C([2H])([2H])Oc1ccc2c(c1)[C@@]13CCCC[C@@H]1[C@@H](C2)N(C([2H])([2H])[2H])CC3	–	–	10.8	4.72	97.3	53.1	112 (≈ 31.1 µg/mL)	95.5 (≈ 26.5 µg/mL)	5.5	–	15	7.07	1840	4.4	4.9	–	–	–	–	–	–
CN1CC[C@@]23CCCC[C@@H]2[C@@H]1Cc1ccc(C(F)(F)C(F)(F)F)cc13	> 10000	1400	–	14.4	–	–	> 100	77 (≈ 27.7 µg/mL)	–	> 10000	–	–	–	1.45	–	0.833	> 10000	0.831	> 10000	1	–
[2H]C([2H])([2H])N1CC[C@@]23CCCC[C@@H]2[C@@H]1Cc1ccc(C(F)F)cc13	–	–	4.1	10.2	4060	854	94 (≈ 27.7 µg/mL)	70 (≈ 20.6 µg/mL)	66	–	353	2.65	135	2.03	1.62	–	–	–	–	–	Cp(f) [5]: 28.8%; Cp(f) [15]: 9%; Vd [17]: 31 L/kg
[2H]C([2H])([2H])N1CC[C@@]23CCCC[C@@H]2[C@@H]1Cc1ccc(C(F)(F)F)cc13	–	–	–	15.4	–	–	95 (≈ 29.7 µg/mL)	70 (≈ 21.9 µg/mL)	–	–	–	–	–	1.34	–	–	–	–	–	–	–
CN1CC[C@@]23CCCC[C@@H]2[C@@H]1Cc1ccc(C(F)F)cc13	> 10000	353	7.8	5.13	4930	674	> 100	> 100	27	145	144	3.33	288	4.05	2.57	1.1	35	1.35	51	0.81	inhibition at 0.25 h, 10 µM [6]: 12%; IC50 [26]: 24 nM; IC50 [12]: 944 nM; Vd [17]: 85 L/kg
[2H]C([2H])([2H])N1CC[C@@]23CCCC[C@@H]2[C@@H]1Cc1ccc(C(C)(F)F)cc13	–	–	–	5.39	–	–	95 (≈ 29.3 µg/mL)	67 (≈ 20.7 µg/mL)	–	–	–	–	–	5.38	–	–	–	–	–	–	–
CN1CC[C@@]23CCCC[C@@H]2[C@@H]1Cc1ccc(C(F)(F)F)cc13	> 10000	885	–	6.48	–	–	> 100	77 (≈ 23.8 µg/mL)	–	813	–	–	–	3.2	–	0.915	> 10000	1.22	125	0.75	inhibition at 0.25 h, 10 µM [6]: 5.1%; IC50 [26]: 60 nM; IC50 [12]: 1040 nM
CN1CC[C@@]23CCCC[C@@H]2[C@@H]1Cc1ccc(C(C)(F)F)cc13	> 10000	826	–	8.42	–	–	> 100	90 (≈ 27.5 µg/mL)	–	675	–	–	–	2.47	–	0.833	> 10000	0.763	301	1.09	–
CN1CC[C@@]23CCCC[C@@H]2[C@@H]1Cc1ccc(OC(F)F)cc13	> 10000	1280	–	4.94	–	–	> 100	76 (≈ 23.4 µg/mL)	–	568	–	–	–	4.22	–	0.979	> 10000	1.28	186	0.77	inhibition at 0.25 h, 10 µM [6]: 34.9%; IC50 [26]: 55 nM; IC50 [12]: > 10000 nM
